Patent US20050009924A1 (priority 2003, published 2005)

Columns and labels:
[1] = test system: iron-induced lipid peroxidation in rat brain homogenates; assay: Iron-induced lipid peroxidation in rat brain homogenates; conditions: for Inhibition of LP(10 mM): mean percent inhibition (Table 3)
[2] = MTT relative viability, PhTERT-SEAP (hTERT-BJ1) cells; conditions: human
[3] = test system: transcriptional activity of hTERT; assay: SEAP reporter assay of hTERT expression, PhTERT-SEAP (hTERT-BJ1); type: cell-based, human; conditions: Homo sapiens, hTERT-BJ1, read-out: Relative SEAP activity (%)
How it was run: (§1)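 SEAP activity, read as rate of 405 nm absorbance rise with 12 mM p-nitrophenyl phosphate in diethanolamine/MgCl2/homoarginine buffer after 65 °C, 10 min heat inactivation, reports hTERT or CMV promoter activity. G418-selected stable H1299 or hTERT-BJ1 reporter lines were exposed to drug for 24 h.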

[4] = MTT relative viability, PhTERT-SEAP (H1299) cells; conditions: human
[5] = test system: transcriptional activity of hTERT; assay: SEAP reporter assay of hTERT expression, PhTERT-SEAP (H1299); type: cell-based, human; conditions: Homo sapiens, NCI-H1299, H1299, read-out: Relative SEAP activity (%)
How it was run: as §1

human hepatoma G2 cells = assay: Cytotoxicity assay (XTT colorimetric), Hep G2; type: cell-based; conditions: Homo sapiens, HepG2; 48 h of drug exposure
rat glioma C6 cells = assay: Cytotoxicity assay (XTT colorimetric), C6 cells; type: cell-based; conditions: Rattus norvegicus, C6; 48 h of drug exposure
[6] = hTERT-BJ1 cells, stable PhTERT-SEAP reporter clone

SMILES | Inhibition of LP(10 mM) ([1]; 10 mM) | melting point | IC50 (human hepatoma G2 cells) | IC50 (rat glioma C6 cells) | viability at 48 h, 2.1 µM [2] | viability at 48 h, 21 µM [2] | viability at 48 h, 210 µM [2] | activity at 2.1 µM [3] | activity at 21 µM [3] | activity at 210 µM [3] | viability at 48 h, 2.1 µM [4] | viability at 48 h, 21 µM [4] | viability at 48 h, 210 µM [4] | activity at 2.1 µM [5] | activity at 21 µM [5] | activity at 210 µM [5] | also measured
CCCC(=O)Oc1cccc2c1C(=O)c1cccc(OC(=O)CCC)c1C2=O [IIIb, 1,5-Bis(butyryloxy)-anthraquinone] | 54 ± 2.2% | 211 to 213 °C | 0.02 ± 0.01 µM | 38.5 ± 2.8 µM |  |  |  |  |  |  |  |  |  |  |  |  | viability at 48 h, 2.6 µM [2]: 109 ± 5.1%; viability at 48 h, 26 µM [2]: 106 ± 5.6%; viability at 48 h, 260 µM [2]: 85 ± 6.6%; activity at 2.6 µM ([3]; 2.6 μM): 107 ± 11.9%; activity at 26 µM ([3]; 26 μM): 119 ± 8.3%; activity at 260 µM ([3]; 260 μM): 134 ± 3.8%; viability at 48 h, 2.6 µM [4]: 107 ± 5.6%; viability at 48 h, 26 µM [4]: 106 ± 3.2%; viability at 48 h, 260 µM [4]: 87 ± 6.5%; activity at 2.6 µM ([5]; 2.6 μM): 114 ± 7.9%; activity at 26 µM ([5]; 26 μM): 118 ± 8.4%; activity at 260 µM ([5]; 260 μM): 111 ± 4.4%
CCCCCC(=O)Oc1cccc2c1C(=O)c1cccc(OC(=O)CCCCC)c1C2=O [IIIc, 1,5-Bis(hexanoyloxy)-anthraquinone] | −55 ± 1.5^ % | 183 to 184 °C | 36.2 ± 2.5 µM | 39.1 ± 4.1 µM |  |  |  |  |  |  |  |  |  |  |  |  | viability at 48 h, 2.3 µM [2]: 119 ± 9.4%; viability at 48 h, 23 µM [2]: 98 ± 13.4%; viability at 48 h, 230 µM [2, 6]: 62 ± 6.4%; activity at 2.3 µM ([3]; 2.3 μM): 147 ± 18.8%; activity at 23 µM ([3]; 23 μM): 149 ± 16.1%; activity at 230 µM ([3]; 230 μM): 124 ± 5.3%; viability at 48 h, 2.3 µM [4]: 117 ± 5.1%; viability at 48 h, 23 µM [4]: 114 ± 4.7%; viability at 48 h, 230 µM [4]: 106 ± 4.3%; activity at 2.3 µM ([5]; 2.3 μM): 91 ± 9.9%; activity at 23 µM ([5]; 23 μM): 95 ± 17.4%; activity at 230 µM ([5]; 230 μM): 95 ± 10.5%
O=C(Oc1cccc2c1C(=O)c1cccc(OC(=O)c3ccccc3)c1C2=O)c1ccccc1 [IIIe, 1,5-Bis(benzoyloxy)-anthraquinone] | −50 ± 1.9^ % | 336 to 338 °C | 47.7 ± 5.5 µM | 38.7 ± 3.6 µM |  |  |  |  |  |  |  |  |  |  |  |  | viability at 48 h, 2.2 µM [2]: 103 ± 6.5%; viability at 48 h, 22 µM [2]: 87 ± 9.8%; viability at 48 h, 220 µM [2]: 51 ± 4.6%; activity at 2.2 µM ([3]; 2.2 μM): 137 ± 10%; activity at 22 µM ([3]; 22 μM): 122 ± 9.6%; activity at 220 µM ([3]; 220 μM): 84 ± 21.7%; viability at 48 h, 2.2 µM [4]: 99 ± 7.3%; viability at 48 h, 22 µM [4]: 60 ± 11.9%; viability at 48 h, 220 µM [4]: 33 ± 4.7%; activity at 2.2 µM ([5]; 2.2 μM): 88 ± 10%; activity at 22 µM ([5]; 22 μM): 94 ± 8%; activity at 220 µM ([5]; 220 μM): 86 ± 4.7%
Cc1ccccc1C(=O)Oc1cccc2c1C(=O)c1cccc(OC(=O)c3ccccc3C)c1C2=O [IIIj, 1,5-Bis(2-toluoyloxy)-anthraquinone] | 23 ± 1.1% | 262 to 263 °C | 21.6 ± 2.2 µM | 25.1 ± 2.8 µM | 118 ± 11.6% | 82 ± 8.5% | 39 ± 13% | 129 ± 13% | 120 ± 24% | 94 ± 27.1% | 72 ± 4.9% | 36 ± 9.7% | 45 ± 8% | 97 ± 4.4% | 91 ± 7.4% | 90 ± 4.2% | 
Cc1cccc(C(=O)Oc2cccc3c2C(=O)c2cccc(OC(=O)c4cccc(C)c4)c2C3=O)c1 [IIIk, 1,5-Bis(3-toluoyloxy)-anthraquinone] | −32 ± 1.5^ % | 269 to 270 °C | 18.1 ± 1.5 µM | 30.1 ± 3.3 µM | 98 ± 9.4% | 54 ± 7.5% | 47 ± 4.8% | 141 ± 10.5% | 124 ± 15.6% | 86 ± 17.2% | 26 ± 3.7% | 28 ± 5% | 29 ± 3.3% | 104 ± 5.4% | 116 ± 12.8% | 110 ± 16.4% | 
Cc1ccc(C(=O)Oc2cccc3c2C(=O)c2cccc(OC(=O)c4ccc(C)cc4)c2C3=O)cc1 [IIIl, 1,5-Bis(4-toluoyloxy)-anthraquinone] | 33 ± 1.2% | 331 to 332 °C | 9.3 ± 0.9 µM | 37.6 ± 4.1 µM | 102 ± 13.9% | 98 ± 6.3% | 56 ± 6.2% | 130 ± 8.8% | 126 ± 13.3% | 99 ± 15.8% | 61 ± 5.8% | 33 ± 2.8% | 32 ± 5.7% | 98 ± 1.1% | 95 ± 4.3% | 95 ± 8.9% | 
O=C(Cc1ccccc1)Oc1cccc2c1C(=O)c1cccc(OC(=O)Cc3ccccc3)c1C2=O [IIIm, 1,5-Bis(phenylacetyloxy)-anthraquinone] | −1 ± 0.2% | 202 to 203 °C | 9 ± 1.5 µM | 39.1 ± 6.2 µM | 106 ± 9% | 97 ± 8.2% | 64 ± 10.2% | 129 ± 4.5% | 125 ± 4.3% | 100 ± 17.3% | 91 ± 4.2% | 53 ± 2.3% | 30 ± 1.6% | 98 ± 0.3% | 101 ± 6.8% | 142 ± 14% | 
O=C(CCc1ccccc1)Oc1cccc2c1C(=O)c1cccc(OC(=O)CCc3ccccc3)c1C2=O [IIIn, 1,5-Bis(phenylpropionyloxy)-anthraquinone] | >100% | 219 to 220 °C | 0.4 ± 0.1 µM | 40.1 ± 5.5 µM |  |  |  |  |  |  |  |  |  |  |  |  | Inhibition (%) ([1]; 0.01 mM): 50 ± 0.8%; Inhibition (%) ([1]; 0.1 mM): 95 ± 2.0%; Inhibition (%) ([1]; 1 mM): >100%; Inhibition (%) ([1]; 10 mM): >100%; viability at 48 h, 2 µM [2, 6]: 111 ± 7.3%; viability at 48 h, 20 µM [2, 6]: 106 ± 6.6%; viability at 48 h, 200 µM [2, 6]: 76 ± 7.2%; activity at 2 µM ([3]; 2.0 μM): 126 ± 6.1%; activity at 20 µM ([3]; 20 μM): 124 ± 13.4%; activity at 200 µM ([3]; 200 μM): 110 ± 10.5%; viability at 48 h, 2 µM [4]: 111 ± 0.8%; viability at 48 h, 20 µM [4]: 101 ± 4.3%; viability at 48 h, 200 µM [4]: 54 ± 4.1%; activity at 2 µM ([5]; 2.0 μM): 94 ± 2.5%; activity at 20 µM ([5]; 20 μM): 98 ± 4.7%; activity at 200 µM ([5]; 200 μM): 89 ± 5.2%
CCSc1cccc2c1C(=O)c1cccc(SCC)c1C2=O [IIa, 1,5-Bis(ethylthio)-anthraquinone] |  | 235 to 236 °C | 12.2 ± 1.1 µM | 0.02 ± 0.01 µM |  |  |  |  |  |  |  |  |  |  |  |  | LP (%) (10 mM) ([1]; 10 mM, relative percentage of inhibition (Table 1)): 83 ± 2.2%; viability at 48 h, 3 µM [2]: 112 ± 9.2%; viability at 48 h, 30 µM [2]: 98 ± 12.3%; viability at 48 h, 300 µM [2]: 34 ± 18.1%; activity at 3 µM ([3]; 3.0 μM): 109 ± 22.4%; activity at 30 µM ([3]; 30 μM): 110 ± 14.3%; activity at 300 µM ([3]; 300 μM): 104 ± 20.6%; viability at 48 h, 3 µM [4]: 111 ± 2.8%; viability at 48 h, 30 µM [4]: 44 ± 7.3%; viability at 48 h, 300 µM [4]: 25 ± 2.3%; activity at 3 µM ([5]; 3.0 μM): 134 ± 14.4%; activity at 30 µM ([5]; 30 μM): 111 ± 7.7%; activity at 300 µM ([5]; 300 μM): 99 ± 14.3%
